Where two headings read alike, the source gives them in different places.
Assays:
human TDO2 = biological target: T1, human TDO2 (Homo sapiens, UniProt P48775); assay: GL261-hTDO2 cell-based assay (kynurenine in supernatant); details: Table 2; for IC50: GL261-hTDO2 cells; for IC50 Ratio hTDO2/hIDO1: GL261-hTDO2 IC50 / LLTC-hIDO1 IC50, ^−1 marks inverse ratio
T1 construct: host or cells: murine GL261 glioma cells
Description: Each compound was tested in cell-based assays using LLTC-hIDO1 and GL261-hTDO2, respectively, for their potency at inhibiting human IDO1 and human TDO2.
(§1) Transfected LLTC cells constitutively expressing human IDO1 (LLTC-hIDO1) were established as previously described, by transfecting wild-type LLTC cells with pAd/CMV/V5-DEST with cDNA for human IDO1 (Invitrogen, Carlsbad, CA, USA). LLTC-mIDO1 cells that constitutive express murine IDO1 were established by transfection of wild-type LLTC with cDNA for murine IDO1 (courtesy of Dr Benoit van den Eynde). GL261 cells were similarly transfected to produce a line constitutively expressing human IDO1 (GL261-hIDO1), and a GL261-hTDO2 line expressing the human TDO2 gene (Source BioScience, Nottingham, England). Stable transfectants were maintained in αMEM with 10% FCS and selection antibiotics (2 µM puromycin for lines transfected with human dioxygenase genes, or 5 µg/mL blastocidin for LLTC-mIDO1 cells).
(§2) For the cell-based assays with engineered TDO2-expressing lines (10^4 cells per well), the α-MEM culture media was additionally supplemented with […] L-tryptophan. In brief, cells were cultured 24 h with the test compounds, and then supernatants from each well were transferred into fresh, flat-bottomed 96-well plates, mixed with trichloroacetic acid (10% final concentration) and incubated for 20 min, at 60 °C. Plates were centrifuged and supernatants transferred and mixed 1:1 with 4-(dimethylamino)benzaldehyde and the absorbance read at 480 nm as previously described. The inhibition of cellular enzyme activity at each drug concentration was calculated as a percent of control wells with no added drug.

human IDO1 [1] = biological target: T2, human IDO1 (Homo sapiens, UniProt P14902); assay: LLTC-hIDO1 cell-based assay (kynurenine in supernatant); parameters: host or cells: murine LLTC Lewis lung carcinoma cells
T2 sequence (P14902 whole entry): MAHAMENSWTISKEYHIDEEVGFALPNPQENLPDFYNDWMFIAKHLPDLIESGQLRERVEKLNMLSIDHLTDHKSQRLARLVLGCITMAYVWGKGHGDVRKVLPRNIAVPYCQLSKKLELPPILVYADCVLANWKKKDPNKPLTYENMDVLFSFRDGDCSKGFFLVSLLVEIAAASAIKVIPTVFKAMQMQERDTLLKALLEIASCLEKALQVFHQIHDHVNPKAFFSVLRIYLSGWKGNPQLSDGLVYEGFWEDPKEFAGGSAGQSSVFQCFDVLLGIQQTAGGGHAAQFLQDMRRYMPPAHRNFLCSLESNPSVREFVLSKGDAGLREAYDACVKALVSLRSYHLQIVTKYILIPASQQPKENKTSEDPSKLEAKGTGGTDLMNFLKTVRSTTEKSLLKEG
Text: as §1, §2

murine IDO1 = biological target: T3, murine IDO1 (Mus musculus, UniProt P28776); assay: LLTC-mIDO1 cell-based assay (kynurenine in supernatant)
T3 construct: expressed in transfected cells; host or cells: murine LLTC Lewis lung carcinoma cells
T3 sequence (P28776 whole entry): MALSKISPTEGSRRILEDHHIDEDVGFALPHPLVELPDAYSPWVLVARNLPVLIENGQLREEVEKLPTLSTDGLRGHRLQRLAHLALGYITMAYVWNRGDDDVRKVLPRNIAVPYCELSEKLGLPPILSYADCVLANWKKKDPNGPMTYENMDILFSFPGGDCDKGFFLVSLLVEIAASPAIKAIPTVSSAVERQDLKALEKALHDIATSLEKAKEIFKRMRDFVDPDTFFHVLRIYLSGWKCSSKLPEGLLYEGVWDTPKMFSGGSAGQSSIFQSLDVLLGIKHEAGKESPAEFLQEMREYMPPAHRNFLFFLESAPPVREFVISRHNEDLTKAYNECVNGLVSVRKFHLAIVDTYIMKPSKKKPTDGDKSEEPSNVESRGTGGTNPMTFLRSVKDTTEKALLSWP
Text: as §1, §2

GL261-hIDO1 tumours [2] = assay: K:T ratios in plasma and tumour of mice with GL261-hIDO1 tumours after single ip dose; assay type: in vivo, C57Bl/6 mice; details: single ip 150 mg/kg
Description: C57Bl/6 mice were inoculated subcutaneously with 10^6 GL261-WT or GL261-hIDO1 cells in […] PBS into the left flank. […] In brief, 100µL of each plasma sample was mixed with 100µL of potassium phosphate buffer (0.05 M, pH 6) containing 100µM of the internal standard, 3-Nitro-L-Tyrosine (Sigma-Aldred, St Louis, MO, USA). Twenty-five µL of 2 mol/L trichloroacetic acid (Merck) was added to precipitate the proteins, and the samples were then vortexed and centrifuged at 12,000× g for 6 min, at room temperature. Standard calibration curves made from serial dilution of tryptophan (Sigma) and L-kynurenine (Sigma) were prepared with the same treatment as the samples. All supernatants collected after centrifugation were transferred into micro sampling vials and analysed for kynurenine and tryptophan as previously described by HPLC (HP Agilent 1200, Agilent Technologies, Walbronn, Germany). Kynurenine and tryptophan concentrations in samples were calculated from the standard calibration curves and the kynurenine to tryptophan ratio (K:T) was calculated by dividing the concentration of kynurenine by the tryptophan concentration.

human IDO1 [3] = biological target: T2, human IDO1; assay: cell-free recombinant hIDO1 enzymatic assay; assay type: biochemical; details: Figure 4, read-out: IC50 (enzyme assay)
GL261-hIDO1 tumours [4] = assay: Growth of subcutaneous GL261-hIDO1 tumours under daily ip treatment; assay type: in vivo; details: daily ip 75, 100 and 150 mg/kg, C57Bl/6 mice
Description: C57Bl/6 mice bred at the Vernon Jansen Unit, University of Auckland were used as the hosts for the growth of GL261 and LLTC tumours. Unless stated, first-generation tumours, initiated by injecting 10^6 cells in 100 µL medium subcutaneously into the left flank of each mouse were used for experiments. […] Tumours were measured thrice weekly, and tumour volumes were calculated as 0.52a^2b, where a and b are the minor and major axes of the tumour.
C57Bl/6 mice were inoculated subcutaneously into the left flank with 10^6 GL261-hIDO1 cells and were randomised into treatment groups 6 days after inoculation when the tumours were approximately 3 × 3 mm in size. Mice with tumours were treated daily with ip injection of the inhibitor at a tolerated non-toxic dose, dissolved to the required concentration in 50 µL DMSO per mouse. Control groups received only DMSO (≤50 µL).

in vivo = details: C57Bl/6, mouse, ip
[5] = Table 2, LLTC-hIDO1 cells, read-out: IC50 (µM) LLTC-hIDO1
[6] = Table 1, LLTC-mIDO1 cells, 24 h culture with compound, read-out: IC50 (µM) LLTC-mIDO1
[7] = Table 1, LLTC-hIDO1 cells, 24 h culture with compound, read-out: IC50 (µM) LLTC-hIDO1
[8] = mice with 16-day GL261-hIDO1 tumours
[9] = LLTC-hIDO1 cell assay vs recombinant hIDO1 enzymatic assay

T1 sequence (P48775 whole entry): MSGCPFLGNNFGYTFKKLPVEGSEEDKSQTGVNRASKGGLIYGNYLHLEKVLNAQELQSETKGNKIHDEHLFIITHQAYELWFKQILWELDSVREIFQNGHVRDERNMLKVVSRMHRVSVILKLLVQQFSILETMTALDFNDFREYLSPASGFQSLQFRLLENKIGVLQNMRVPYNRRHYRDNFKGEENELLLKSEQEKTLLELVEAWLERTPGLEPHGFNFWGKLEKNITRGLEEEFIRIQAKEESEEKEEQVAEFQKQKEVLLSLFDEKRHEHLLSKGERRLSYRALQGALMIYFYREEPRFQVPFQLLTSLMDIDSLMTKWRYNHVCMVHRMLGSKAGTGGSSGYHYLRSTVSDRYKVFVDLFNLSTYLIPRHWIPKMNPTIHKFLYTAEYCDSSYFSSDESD

Row | IC50 (human TDO2) [µM] | IC50 (human IDO1 [1]; [5]) [µM] | IC50 (murine IDO1; [6]) [µM] | IC50 (human IDO1 [1]; [7]) [µM] | Compound | also measured
1 | 0.11 | 0.64 | – | – | Nc1noc2ncc(I)cc12 [SN36896] | –
2 | 1.58 | 2.11 | – | – | Nc1noc2nc3ccccc3cc12 [SN36500] | –
3 | – | – | 25 | 41.2 | C/C(=N\Nc1ccc(F)cc1F)c1cc2ccccc2o1 [Compound W-0079399] | –
4 | – | – | 70.7 | 31.6 | Cc1ccc(C)c(C2=Nn3c(COc4ccccc4F)nnc3SC2C)c1 (stereo not drawn) [Compound W-0080549] | –
5 | – | – | 50.5 | 11.6 | CCn1cc(-c2c(N)sc(NC(=O)c3ccccc3)c2C#N)c(C)n1 [Compound W-0020339] | –
6 | – | – | 22.5 | 2.56 | N#Cc1c(NC(=O)c2ccccc2)sc(N)c1-c1cccs1 [Compound W-0003891] | –
7 | – | – | 10.3 | 17.1 | C/C(=N\Nc1ccc(C)c(Cl)c1)c1ccncc1 [Compound W-0079341] | –
8 | 0.68 | 0.92 | – | – | Nc1noc2ncc([N+](=O)[O-])cc12 [SN37318] | –
9 | – | – | 3.03 | 3.45 | Fc1ccc(N/N=C/c2sc(N3CCOCC3)nc2-c2ccccc2)cc1 [Compound W-0079497] | –
10 | – | – | 20 | 20.1 | NC(=O)SCC(=O)Nc1ccc(F)cc1 [Compound W-0013201] | –
11 | – | – | 11.3 | 17.9 | Cc1ccc(N/N=C2/CCCNC2=O)cc1 [Compound W-0011320] | –
12 | 1.07 | 8.67 | – | – | Nc1noc2ncncc12 [SN36704] | –
13 | – | – | 13.3 | 5.33 | CC1=C/C(=N\Nc2ccccc2Cl)CC1 [Compound W-0079433] | –
14 | – | – | 1.87 | 3.39 | CC(C)N1CCC(=NNc2ccc(Cl)c(Cl)c2)CC1 [Compound W-0079407] | –
15 | – | – | 5.83 | 6.04 | Fc1ccc(N/N=C2/CCCc3ccccc32)c(F)c1 [Compound W-0125931] | –
16 | 37 | 4.38 | – | – | Nc1noc2nc(-c3ccccc3)ccc12 [SN36796] | IC50 Ratio hTDO2/hIDO1 (human TDO2): 8
17 | – | – | 16 | 6.74 | COc1cc(/C(C)=N/Nc2ccc(Cl)c(Cl)c2)cc(OC)c1OC [Compound W-0079409] | –
18 | 0.11 | 0.7 | – | – | Nc1noc2ncc(Cl)cc12 [SN36499] | –
19 | – | – | – | – | c1ccc2c(c1)Nc1ccccc1O2 [Compound W-0020227] | IC50 (murine IDO1): 3.1 µM; IC50 (human IDO1 [1]): 1.52 µM
20 | – | – | 1.32 | 3.19 | O=C(O)c1coc2c1C(=NNc1ccccc1)CCC2 [Compound W-0011387] | –
21 | – | – | 12.9 | 20.8 | C/C(=N\Nc1ccc(F)cc1F)c1ccc(N2CCOCC2)cc1 [Compound W-0079400] | –
22 | – | – | 13.1 | 10.1 | C/C(=N\Nc1ccc(F)cc1F)c1cccs1 [Compound W-0079326] | –
23 | 14.1 | 0.3 | – | – | Cc1nc2onc(N)c2c(C)c1Br [SN36494] | IC50 Ratio hTDO2/hIDO1 (human TDO2): 47
24 | 6.08 | – | – | – | Nc1nonc1/C(=N\O)Nc1ccc(F)c(Cl)c1 [INCB14934, reference compound] | IC50 (murine IDO1): 0.12 µM; titration curve in the cell-assay compared to that in the enzymatic assay (human IDO1 [1]; [9]): very similar
25 | 175 | 2.06 | – | – | Cc1nc2onc(NC(=O)Nc3ccccc3)c2c(C)c1Cl [SN37705] | IC50 Ratio hTDO2/hIDO1 (human TDO2): 85
26 | 0.08 | 0.66 | – | – | Nc1noc2ncc(Br)cc12 [SN36458] | –
27 | 4.14 | 0.06 | – | – | Cc1cc(Cl)nc2onc(N)c12 [SN37313] | IC50 Ratio hTDO2/hIDO1 (human TDO2): 67
28 | 1.81 | 1.14 | – | – | Nc1noc2nc(C(F)(F)F)ccc12 [SN37159] | IC50 Ratio hTDO2/hIDO1 (human TDO2): 1.6
29 | 10.7 | 8.88 | – | – | COc1ccc2c(N)noc2n1 [SN37057] | IC50 Ratio hTDO2/hIDO1 (human TDO2): 1.2

Row | Compound | IC50 (human TDO2) [µM] | IC50 (human IDO1 [1]; [5]) [µM] | IC50 (murine IDO1; [6]) [µM] | IC50 (human IDO1 [1]; [7]) [µM] | also measured
30 | Cc1nc2onc(N)c2c(C)c1Cl [Compound W-0019482] | 15.2 | 0.09 | 0.01 | 0.08 | IC50 Ratio hTDO2/hIDO1 (human TDO2): 169; K:T ratio in the tumour, returned to % of that in mice without treatment (GL261-hIDO1 tumours [2]; GL261-hIDO1 tumours, time point not given): approximately 50%; K:T ratio in plasma (GL261-hIDO1 tumours [2]; [8]): reduced within an hour; K:T ratio in tumour (GL261-hIDO1 tumours [2]; [8]): reduced within an hour; IC50 (human IDO1 [3]): 1.85 µM; growth of subcutaneous GL261-hIDO1 tumours (GL261-hIDO1 tumours [4]): delayed the growth; IC50 (human IDO1 [1]; Figure 4, LLTC-hIDO1 cell-based assay, read-out: IC50 (cell assay)): 0.0661 µM; fold more potent in the cell-based assay compared to activity against the enzyme (human IDO1 [1]; [9]): 30 fold; MTD (in vivo): 150 mg/kg
